Where two headings read alike, the source gives them in different places. Starred links: 1 amine or outer side, 2 acyl side, 3 side chain; linkers in the order of their positions; H or OH if unused. Non-standard residues stand in square brackets, D forms with d. Residues, ends and D or L forms follow the SMILES beside them. *: point of attachment. X4 = Cc1cc(F)cc(-c2cnc(NCCNC(=O)CCOCCOCCOCCOCCC(=O)*)c(-c3nc4ccc(Cl)cc4[nH]3)c2N2CCC(N)CC2)c1; X1 = Cc1cc(F)cc(-c2cnc(NCCNC(=O)CCOCCC(=O)*)c(-c3nc4ccc(Cl)cc4[nH]3)c2N2CCC(N)CC2)c1; X5 = Cc1cc(F)cc(-c2cnc(NCCNC(=O)CCOCCC(=O)*)c(-c3nc4cc(Cl)ccc4[nH]3)c2N2CCC(N)CC2)c1; Dolaproine = CO[C@@H]([C@@H]1CCCN1)[C@@H](C)C(=O)O; Dil = CC[C@H](C)[C@H](NC)[C@@H](CC(=O)O)OC; PABC = O=C(OCc1ccc(N[*:1])cc1)[*:2]; X2 = C[C@@H](N*)[C@@H](O)c1ccccc1; Cya = N[C@@H](CS(=O)(=O)O)C(=O)O; Cit = NC(=O)NCCC[C@H](N)C(=O)O; NMeV = CN[C@H](C(=O)O)C(C)C
Key:
Type in all cases: cell-based
[1] = target: T1, SST2 (Homo sapiens, UniProt P30874); assay: PathHunter CHO-K1 SST2 internalization assay; conditions: PathHunter CHO-K1 SST2, 90 min
T1 construct: host or cells: PathHunter CHO-K1 SST2 cells
Method: SMDCs of the present invention were assessed in vitro using the human PathHunter CHO-K1 SST2 β-arrestin2 and PathHunter CHO-K1 SST2 Internalization Assays from DiscoverX. The CHO-K cells were seeded in 20 μLs of cell culture medium in a white-walled 384 well tissue culture-compatible plate at a density of 2500 cells/well. After a 48-hour incubation, cells were treated with 5 μLs of a 1:3 serially diluted SST2 SMDC prepared at 5× concentration with a final top compound concentration of 10 uM for 90 min at 37 C and in 5% CO2. 11 dilutions were tested as well as one treatment that was compound free. After incubation, the media containing treatments were discarded and 20 μL of a working solution of Beta-Glo from Promega Beta-Glo Assay System was added to each well. The plate was then incubated for 60 min at room temperature in the dark. Luminescence was measured using a Tecan plate reader. IC50 curves were generated using the nonlinear regression analysis (four-parameters) with GraphPad Prism 9. Results were the average of duplicates and are corrected for background.

[2] = tested on: NCI-H524 (ATCC) human small cell lung cancer cells; conditions: 2 h
Method: SMDCs of the present invention were assessed in an in vitro assay evaluating the inhibition of cell proliferation. NCI-H524 (ATCC) human small cell lung cancer cells were plated in 96-well V-bottom plates (Costar) at a concentration of 5,000 cells/well. 24 h later, the cells were treated for 2 h with a SMDC. SMDC starting dose was 1 uM and two-fold serial dilutions were done for a total of 11 points. After 2 h of treatment, cells were spun down, and the drug-containing media was removed, and fresh complete media was added and used to resuspend the cells, which were spun again. After removal of the media, the cells were resuspended in complete medium and incubated for an additional 70 h. Cell proliferation was assessed using the CellTiter Glo Assay according to the standard protocol (Promega). Luminescence was measured using a TECAN plate reader. Percent proliferation inhibition was calculated using the following formula: % inhibition=(Luminescence Control−Luminescence Treatment)/Luminescence Control*100. IC50 curves were generated using the nonlinear regression analysis (four-parameter) with GraphPad Prism 9.

[3] = target: T2, human somatostatin receptor subtype 2 (Homo sapiens, UniProt P30874); assay: Functional cAMP assay for SSTR2 agonists (HTRF) in CHO-K1 cells; conditions: CHO-K1 cells stably expressing human SST2, 20 min
T2 construct: expressed in transfected cells
From the text: General overview: All five SSTR subtypes are Gi coupled G-protein coupled receptors (GPCRs) that lead to decreases in intracellular cyclic AMP (cAMP) when activated by an agonist. Therefore, measurement of intracellular cAMP levels can be used to assess whether compounds of the invention are agonists of SSTR subtypes (John Kelly, Troy Stevens, W. Joseph Thompson, and Roland Seifert, Current Protocols in Pharmacology, 2005, 2.2.1-2.2). One example of an intracellular cAMP assay is described below.
Functional Assay for SSTR2 Agonists
Four days prior to the assay, 2,000 Chinese hamster ovary cells (CHO-K1, ATCC #CCL-61) stably expressing the human somatostatin receptor subtype 2 are plated in each well of a 96-well tissue culture-treated plate in Ham's F12 growth media (ThermoFisher #10-080-CM) supplemented with 10% donor bovine serum (Gemini Bio-Products #100-506), 100 U/mL penicillin; 100 ug/mL streptomycin; 2 mM L-glutamine (Gemini Bio-Products #400-110) and 0.2 mg/mL hygromycin B (GoldBio #31282-04-9). The cells are cultured at 37° C., 5% CO2 and 95% humidity. cAMP is measured with HTRF dynamic cAMP assay (Cisbio, #62AM5PEJ) per manufacturer's instructions. On the day of the assay, the media is aspirated and the cells are treated with 50 μL of stimulation buffer supplemented with 10.2 mM 3-Isobutyl-1-methylxanthine (IBMX, Millipore Sigma #15879) and 1.6 μM NKH477 (Tocris #1603), plus various dilutions of SMDCs of the present invention. The cells are incubated for 20 minutes at 37° C. (the final concentration of the compounds of the invention are typically 0-10,000 nM). The cells are treated with 50 μL of lysis buffer (HRTF cAMP kit, Cisbio) and incubated at room temperature for 30 minutes with rotary shaking at 600 rpm, and then diluted with 150 μL of stimulation buffer and shaken for an additional five minutes at 300 rpm. The lysate is transferred to 384-well plates and incubated for 1-24 hours at room temperature, and cAMP accumulation is detected by d2-labeled cAMP and Anti-cAMP-Cryptate. The time-resolved fluorescent signal is read using a m1000 Pro (Tecan) or CLARIOStar (BMG Labtech) microplate reader, where the samples are excited with light at 340 nm and emission light is measured at 620 nm and 665 nm. The data is expressed as a calculation of the fluorescence ratio (665 nm/620 nm). The intracellular cAMP concentrations are calculated by regression to a standard curve and are plotted vs. the concentration of the compounds of the invention. The EC50 of the compounds are calculated using standard methods. All data manipulations are in GraphPad Prism v9 (GraphPad, San Diego, CA).

T2 sequence (P30874 whole entry): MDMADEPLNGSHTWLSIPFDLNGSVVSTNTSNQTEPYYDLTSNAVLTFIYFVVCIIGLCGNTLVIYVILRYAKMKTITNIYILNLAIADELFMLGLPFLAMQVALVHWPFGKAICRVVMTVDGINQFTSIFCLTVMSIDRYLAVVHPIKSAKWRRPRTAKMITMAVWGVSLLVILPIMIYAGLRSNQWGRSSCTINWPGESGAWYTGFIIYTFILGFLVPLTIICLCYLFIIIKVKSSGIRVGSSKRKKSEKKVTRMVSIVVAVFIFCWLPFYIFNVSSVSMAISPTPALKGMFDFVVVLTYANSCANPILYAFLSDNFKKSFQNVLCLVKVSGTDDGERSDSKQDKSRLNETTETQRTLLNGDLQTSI
T1 sequence (P30874 whole entry): as above

| Structure (SMILES) | EC50 ([1]; read-out: Internalization EC50) [nM] | EC50 [2] [nM] | EC50 ([3]; read-out: hSST2 cAMP Avg EC50) [nM] | EC50 ([1]; Internalization EC50 (nM)) [nM] | EC50 ([3]; hSST2 cAMP Avg EC50 (nM)) [nM] |
| --- | --- | --- | --- | --- | --- |
| CCC(C)C(C(CC(=O)N1CCCC1C(OC)C(C)C(=O)NC(C)C(O)c1ccccc1)OC)N(C)C(=O)C(NC(=O)C(C(C)C)N(C)C(=O)OCc1ccc(NC(=O)[C@H](CCCNC(N)=O)NC(=O)[C@@H](NC(=O)CCOCCOCCOCCOCCOCCOCCC(=O)NCCNc2ncc(-c3cc(C)cc(F)c3)c(N3CCC(N)CC3)c2-c2nc3ccc(Cl)cc3[nH]2)C(C)C)cc1)C(C)C (stereo in doubt) [Compound 40] | 26.4 | 46.5 | 0.36 |  |  |
| CC[C@H](C)[C@@H]([C@@H](CC(=O)N1CCC[C@H]1[C@H](OC)[C@@H](C)C(=O)N[C@H](C)[C@@H](O)c1ccccc1)OC)N(C)C(=O)[C@@H](NC(=O)[C@H](C(C)C)N(C)C(=O)OCc1ccc(NC(=O)[C@H](CCCNC(N)=O)NC(=O)[C@@H](NC(=O)[C@H](CS(=O)(=O)O)NC(=O)CCOCCOCCOCCOCCC(=O)NCCNc2ncc(-c3cc(C)cc(F)c3)c(N3CCC(N)CC3)c2-c2nc3ccc(Cl)cc3[nH]2)C(C)C)cc1C(=O)NCCN)C(C)C [Compound 157] | 12 |  | 0.17 |  |  |
| CC[C@H](C)[C@@H]([C@@H](CC(=O)N1CCC[C@H]1[C@H](OC)[C@@H](C)C(=O)N[C@H](C)[C@@H](O)c1ccccc1)OC)N(C)C(=O)[C@@H](NC(=O)[C@H](C(C)C)N(C)C(=O)OCc1ccc(NC(=O)[C@H](C)NC(=O)[C@@H](NC(=O)CCOCCOCCOCCOCCC(=O)NCCNc2ncc(-c3cc(C)cc(F)c3)c(N3CCC(N)CC3)c2-c2nc3ccc(Cl)cc3[nH]2)C(C)C)cc1C(=O)NCCN)C(C)C [Compound 85] | 13 | 2.2 | 0.25 |  |  |
| CC[C@H](C)[C@@H]([C@@H](CC(=O)N1CCC[C@H]1[C@H](OC)[C@@H](C)C(=O)N[C@H](C)[C@@H](O)c1ccccc1)OC)N(C)C(=O)[C@@H](NC(=O)[C@H](C(C)C)N(C)C(=O)OCc1ccc(NC(=O)[C@H](CCCNC(N)=O)NC(=O)[C@@H](NC(=O)[C@H](CCC(=O)O)NC(=O)[C@H](CCC(=O)O)NC(=O)CCOCCOCCOCCOCCC(=O)NCCNc2ncc(-c3cc(C)cc(F)c3)c(N3CCC(N)CC3)c2-c2nc3ccc(Cl)cc3[nH]2)C(C)C)cc1)C(C)C [Compound 110] (X4-EEV[Cit][PABC][NMeV]V[Dil][Dolaproine]-X2) | 13 | 110 | 0.57 |  |  |
| CC[C@H](C)[C@@H]([C@@H](CC(=O)N1CCC[C@H]1[C@H](OC)[C@@H](C)C(=O)N[C@H](C)[C@@H](O)c1ccccc1)OC)N(C)C(=O)[C@@H](NC(=O)[C@H](C(C)C)N(C)C(=O)OCc1ccc(NC(=O)[C@H](CCCNC(N)=O)NC(=O)[C@@H](NC(=O)CCOCCNCCNc2ncc(-c3cc(C)cc(F)c3)c(N3CCC(N)CC3)c2-c2nc3ccc(Cl)cc3[nH]2)C(C)C)cc1)C(C)C [Compound 84] | 9.7 | 24 | 0.51 |  |  |
| CC[C@H](C)[C@@H]([C@@H](CC(=O)N1CCC[C@H]1[C@H](OC)[C@@H](C)C(=O)N[C@H](C)[C@@H](O)c1ccccc1)OC)N(C)C(=O)[C@@H](NC(=O)[C@H](C(C)C)N(C)C(=O)OCc1ccc(NC(=O)[C@H](CCCNC(N)=O)NC(=O)[C@@H](NC(=O)CCOCCNC(=O)CN2CCN(CC(=O)O)CCN(CC(=O)NCCOCCOCCOCCOCCC(=O)NCCNc3ncc(-c4cc(C)cc(F)c4)c(N4CCC(N)CC4)c3-c3nc4ccc(Cl)cc4[nH]3)CC2)C(C)C)cc1)C(C)C [Compound 43] | 18.1 | 82.6 | 0.29 |  |  |
| CC[C@@]1(O)C(=O)OCc2c1cc1n(c2=O)Cc2c-1nc1cc(F)c(C)c3c1c2[C@@H](NC(=O)OCc1ccc(NC(=O)[C@H](CCCNC(N)=O)NC(=O)[C@@H](NC(=O)CCOCCOCCOCCOCCC(=O)NCCNc2ncc(-c4cc(C)cc(F)c4)c(N4CCC(N)CC4)c2-c2nc4ccc(Cl)cc4[nH]2)C(C)C)c(O[C@@H]2O[C@H](C(=O)O)[C@@H](O)[C@H](O)[C@H]2O)c1)CC3 [Compound 127] |  |  |  | 13 | 0.26 |
| CC[C@H](C)[C@@H]([C@@H](CC(=O)N1CCC[C@H]1[C@H](OC)[C@@H](C)C(=O)N[C@H](C)[C@@H](O)c1ccccc1)OC)N(C)C(=O)[C@@H](NC(=O)[C@H](C(C)C)N(C)C(=O)OCc1ccc(NC(=O)[C@H](CCCNC(N)=O)NC(=O)[C@@H](NC(=O)[C@H](CS(=O)(=O)O)NC(=O)CCOCCOCCOCCOCCC(=O)NCCNc2ncc(-c3cc(C)cc(F)c3)c(N3CCC(N)CC3)c2-c2nc3cc(Cl)ccc3[nH]2)C(C)C)cc1)C(C)C [Compound 81] |  | 32 |  |  |  |
| Cc1cc(F)cc(-c2cnc(NCCNC(=O)CCOCCOCCOCCOCCNC(=O)CCCCC[N+]3=C(/C=C/C=C/C=C4/N(C)c5ccccc5C4(C)C)C(C)(C)c4ccccc43)c(-c3nc4ccc(Cl)cc4[nH]3)c2N2CCC(N)CC2)c1 [Compound 12, 1-[5-({14-[(2-{[4-(4-aminopiperidin-1-yl)-3-(6-chloro-1H-1,3-benzodiazol-2-yl)-5-(3-fluoro-5-methylphenyl)pyridin-2-yl]amino}ethyl)carbamoyl]-3,6,9,12-tetraoxatetradecan-1-yl}carbamoyl)pentyl]-3,3-dimethyl-2-[(1E,3E)-5-[(2E)-1,3,3-trimethyl-2,3-dihydro-1H-indol-2-ylidene]penta-1,3-dien-1-yl]-3H-indol-1-ium] | 2.9 |  | 0.39 |  |  |
| CC[C@H](C)[C@@H]([C@@H](CC(=O)N1CCC[C@H]1[C@H](OC)[C@@H](C)C(=O)N[C@H](C)[C@@H](O)c1ccccc1)OC)N(C)C(=O)[C@@H](NC(=O)[C@H](C(C)C)N(C)C(=O)OCc1ccc(NC(=O)[C@H](C)NC(=O)[C@@H](NC(=O)[C@H](CCC(=O)O)NC(=O)CCOCCC(=O)NCCNc2ncc(-c3cc(C)cc(F)c3)c(N3CCC(N)CC3)c2-c2nc3cc(Cl)ccc3[nH]2)C(C)C)cc1)C(C)C [Compound 32] (X5-EVA[PABC][NMeV]V[Dil][Dolaproine]-X2) |  | 155 |  |  |  |
| CC[C@H](C)[C@@H]([C@@H](CC(=O)N1CCC[C@H]1[C@H](OC)[C@@H](C)C(=O)N[C@H](C)[C@@H](O)c1ccccc1)OC)N(C)C(=O)[C@@H](NC(=O)[C@H](C(C)C)N(C)C(=O)OCc1ccc(NC(=O)[C@H](CCCNC(N)=O)NC(=O)[C@@H](NC(=O)[C@H](CS(=O)(=O)O)NC(=O)[C@H](CCC(=O)O)NC(=O)CCOCCC(=O)NCCNc2ncc(-c3cc(C)cc(F)c3)c(N3CCC(N)CC3)c2-c2nc3ccc(Cl)cc3[nH]2)C(C)C)cc1)C(C)C [Compound 115] (X1-E[Cya]V[Cit][PABC][NMeV]V[Dil][Dolaproine]-X2) | 3.6 |  | 0.08 |  |  |

Source: patent publication US12134610B2, “Somatostatin subtype-2 receptor (SST2R) targeted therapeutics and uses thereof” (priority 2022, dated 2024)
